According to patent publication US5698411A, “Method for determining activity of enzymes in metabolically active whole cells” (priority 1995, dated 1997):
Blank lines part the entries; values can stand above or below the compound they belong to.

Key:
Format in all cases: cell-based, human
lymphocytes = test: aberrant enzyme activities in febrile children, lymphocytes (Table 7)
monocytes = test: aberrant enzyme activities in febrile children, monocytes (Table 7)
granulocytes = test: aberrant enzyme activities in febrile children, granulocytes (Table 7)
[1] = P88 Enteritis, listed as Z-Gly/Pro

aberrant enzyme activity, LYMPHS (lymphocytes; [1]): .smallcircle. | aberrant enzyme activity, LYMPHS (lymphocytes; P89 Viral Stomatitis): - (>0.25 Decrease over normal range) | aberrant enzyme activity, LYMPHS (lymphocytes; P92 Adenitis): - (>0.25 Decrease over normal range) | aberrant enzyme activity, LYMPHS (lymphocytes; P95 Viral Syndrome): - (>0.25 Decrease over normal range) | aberrant enzyme activity, LYMPHS (lymphocytes; P96 Viral Syndrome): - (>0.25 Decrease over normal range) | aberrant enzyme activity, LYMPHS (lymphocytes; P97 Pyelonephritis, listed as Z-Gly/Pro): .smallcircle. | aberrant enzyme activity, LYMPHS (lymphocytes; P101 Fever -- Unknown Origin): - (>0.25 Decrease over normal range) | aberrant enzyme activity, LYMPHS (lymphocytes; P103 Viral Syndrome): - (>0.25 Decrease over normal range) | aberrant enzyme activity, MONOS (monocytes; [1]): .smallcircle. | aberrant enzyme activity, MONOS (monocytes; P89 Viral Stomatitis): .smallcircle. | aberrant enzyme activity, MONOS (monocytes; P92 Adenitis): - (>0.25 Decrease over normal range) | aberrant enzyme activity, MONOS (monocytes; P95 Viral Syndrome): .smallcircle. | aberrant enzyme activity, MONOS (monocytes; P96 Viral Syndrome): .smallcircle. | aberrant enzyme activity, MONOS (monocytes; P97 Pyelonephritis): .smallcircle. | aberrant enzyme activity, MONOS (monocytes; P99 Viral Syndrome): .smallcircle. | aberrant enzyme activity, MONOS (monocytes; P101 Fever -- Unknown Origin): - (>0.25 Decrease over normal range) | aberrant enzyme activity, MONOS (monocytes; P102 UTI): .smallcircle. | aberrant enzyme activity, MONOS (monocytes; P103 Viral Syndrome): .smallcircle. | aberrant enzyme activity, GRANS (granulocytes; [1]): .smallcircle. | aberrant enzyme activity, GRANS (granulocytes; P92 Adenitis): - (>0.25 Decrease over normal range) | aberrant enzyme activity, GRANS (granulocytes; P95 Viral Syndrome): - (>0.25 Decrease over normal range) | aberrant enzyme activity, GRANS (granulocytes; P96 Viral Syndrome): .smallcircle. | aberrant enzyme activity, GRANS (granulocytes; P97 Pyelonephritis): .smallcircle. | aberrant enzyme activity, GRANS (granulocytes; P99 Viral Syndrome): .smallcircle. | aberrant enzyme activity, GRANS (granulocytes; P103 Viral Syndrome): .smallcircle.
SMILES: O=C(NCC(=O)N1CCC[C@H]1C(=O)Nc1ccc2c(c1)Oc1cc(NC(=O)[C@@H]3CCCN3C(=O)CNC(=O)OCc3ccccc3)ccc1C21OC(=O)c2ccccc21)OCc1ccccc1 [Z-GP, (carbobenzyloxycarbonyl-Gly-Pro)2 Rho 110]

aberrant enzyme activity, LYMPHS (lymphocytes; P88 Enteritis): - (>0.25 Decrease over normal range) | aberrant enzyme activity, LYMPHS (lymphocytes; P89 Viral Stomatitis): - (>0.25 Decrease over normal range) | aberrant enzyme activity, LYMPHS (lymphocytes; P92 Adenitis): - (>0.25 Decrease over normal range) | aberrant enzyme activity, LYMPHS (lymphocytes; P97 Pyelonephritis): .smallcircle. | aberrant enzyme activity, LYMPHS (lymphocytes; P103 Viral Syndrome): .smallcircle. | aberrant enzyme activity, MONOS (monocytes; P88 Enteritis): - (>0.25 Decrease over normal range) | aberrant enzyme activity, MONOS (monocytes; P89 Viral Stomatitis): - (>0.25 Decrease over normal range) | aberrant enzyme activity, MONOS (monocytes; P92 Adenitis): - (>0.25 Decrease over normal range) | aberrant enzyme activity, MONOS (monocytes; P97 Pyelonephritis): .smallcircle. | aberrant enzyme activity, MONOS (monocytes; P103 Viral Syndrome): .smallcircle. | aberrant enzyme activity, GRANS (granulocytes; P88 Enteritis): - (>0.25 Decrease over normal range) | aberrant enzyme activity, GRANS (granulocytes; P89 Viral Stomatitis): - (>0.25 Decrease over normal range) | aberrant enzyme activity, GRANS (granulocytes; P92 Adenitis): - (>0.25 Decrease over normal range) | aberrant enzyme activity, GRANS (granulocytes; P103 Viral Syndrome): .smallcircle.
SMILES: C[C@@H](O)[C@H](NC(=O)OCc1ccccc1)C(=O)N1CCC[C@H]1C(=O)Nc1ccc2c(c1)Oc1cc(NC(=O)[C@@H]3CCCN3C(=O)[C@@H](NC(=O)OCc3ccccc3)[C@@H](C)O)ccc1C21OC(=O)c2ccccc21 [Z-TP6.5, (carbobenzyloxycarbonyl-Thr-Pro)2 Rho 110 (pH 6.5)]
